Assay results reported in patent US20180057465A1, “Inhibitors of Necroptosis” (Catalyst Therapeutics Pty Ltd, priority 2015, published 2018).
Where two headings read alike, the source gives them in different places.

Tests used:
[1] = system: U937; test: Off-target effect (cell based assay), reported with assay 2; conditions: Homo sapiens
Method: (§1) Assay 2: Screening Compounds for Inhibition of TSQ Induced Necroptosis, 96 Well Plate Format.
(§2) Cell Line ID: U937 human histiocytic leukemia cell line.
(§3) Cell Concentration (cells/well): Final cell density is 5000 cells per well.
(§4) Cell growth medium: HT-RPMI+7.4% FBS. Cells are cultured in Corning 150 cm^2 tissue culture flasks with vented caps at 37° C./5% CO2.
(§5) Incubation time (hours): 48 hours following addition of compounds and death stimuli
(§6) Compound concentration: 100 nM
(§7) DMSO final concentration (% v/v): 0.3%.
(§8) Data is loaded into Abase and normalised. 10 points titration curve are fitted with the 4 parameter logistic nonlinear regression model and the IC50 reported reflects the inflection point of the curve for curve fitting.

[2] = system: U937 human histiocytic leukemia cell line; test: Off-target effect (cell based assay), reported with assay 1
Method: (§9) Assay 1: Screening Compounds for Inhibition of TSQ Induced Necroptosis, 96 Well Plate Format.
(§10) Cell Line ID: […] human histiocytic leukemia cell line.
(§11) Cell Concentration (cells/well): 35,000 per well in 120 μL of media, counted and plated immediately prior to addition of inhibitor and death stimuli. Final well volume of 150 μL after addition of compounds and death stimuli
(§12) Cell growth medium: HTRPMI (WEHI Media kitchen, contains L-Glutamine and penicillin, streptomycin)—supplemented with 7.4% v/v FCS (Gibco, Precision Plus. Lot #1221437)
as §5
(§13) Compound Concentrations—Log Titrations:
(§14) DMSO final concentration (% v/v): 1.2% in 10 μM well to 0.2% in the control well.
(§15) Cells treated with PI staining (1 μg/ml) and analysed by flow cytometry

[3] = system: U937 human histiocytic leukemia cell line; test: Assay 2: inhibition of TSQ induced necroptosis, 96 well plate format; conditions: read-out: Inhibition of TSQ-induced necroptosis (cell based assay) IC50 (U937, TSQ nM)
Method: as §1, §2, §3, §4, §5, §6, §7
(§16) Compounds that are in the Death Stimulation Cocktail and Their Final Concentrations:
(§17) hTNF-Fc (100 ng/ml)—produced by standard procedures as shown in Bossen et al., J Biol Chem, 2006, 281(20), 13964-13971.
(§18) Compound A (500 nM)—Smac mimetic, Tetralogic
(§19) Q-VD-OPh (10 μM)—MP Biomedicals
as §8

[4] = system: U937 human histiocytic leukemia cell line; test: Assay 1: inhibition of TSQ induced necroptosis, 96 well plate format; format: cell-based
Method: For in vitro analysis, the necroptosis inhibition may be determined by assays used to measure TSQ-induced necroptosis, as described in the biological tests defined herein.
as §9, §10, §11, §12, §5, §13, §14, §16, §17, §18, §19, §15

[5] = U-937, Table 2, assay 2, U937, read-out: Off-target effect (cell based assay) IC50 (U937)
[6] = U-937, Table 1, assay 1, read-out: Off-target effect (cell based assay) IC50
[7] = U-937, Table 2, assay 2, U937, 5000 cells per well, hTNF-Fc 100 ng/ml, Compound A 500 nM, Q-VD-OPh 10 μM, 48 hours
[8] = U-937, Table 1, assay 1, hTNF-Fc 100 ng/ml, Compound A 500 nM, Q-VD-OPh 10 μM, 48 hours, PI staining, flow cytometry, read-out: Inhibition of TSQ-induced necroptosis (cell based assay) IC50
[9] = U-937, comparison tables of the description, values as in Table 1 (assay 1), read-out: IC50 (nM) Off-Target Effect
[10] = U-937, comparison tables of the description, values as in Table 1 (assay 1), read-out: IC50 (nM) Necroptosis inhibition
[11] = U-937, read-out: Off-target effect (cell based assay) IC50 (U937, μM)

SMILES | IC50 [1, 5] | IC50 [2, 6] | IC50 [3, 7] | IC50 [4, 8] | other results
Cc1ccc(Nc2nccc(N(C)c3ccc(NC(=O)Nc4cc(F)cc(C(F)(F)F)c4)cc3)n2)cc1N1CCNC1=O [Compound 34, 1-(3-fluoro-5-(trifluoromethyl)phenyl)-3-(4-(methyl(2-((4-methyl-3-(2-oxoimidazolidin-1-yl)phenyl)amino)pyrimidin-4-yl)amino)phenyl)urea] | 0.513 µM | 2420 nM | 29 nM | 23 nM | –
CNC(=O)c1cc(Nc2nccc(N(C)c3ccc(NC(=O)Nc4cccc(CC(F)(F)F)c4)cc3)n2)ccc1C [Compound 38, N,2-dimethyl-5-((4-(methyl(4-(3-(3-(2,2,2-trifluoroethyl)phenyl)ureido)phenyl)amino)pyrimidin-2-yl)amino)benzamide] | 0.231 µM | – | 2.3 nM | – | –
CN(c1ccc(NC(=O)Nc2ccc(OC(F)(F)F)cc2)cc1)c1ccnc(Nc2cccc(N3CC4(CCOCC4)CC3=O)c2)n1 [Compound 40, 1-(4-(methyl(2-((3-(3-oxo-8-oxa-2-azaspiro[4.5]decan-2-yl)phenyl)amino)pyrimidin-4-yl)amino)phenyl)-3-(4-(trifluoromethoxy)phenyl)urea] | > 10 µM | – | 7.5 nM | – | –
CNC(=O)c1cc(Nc2nccc(N(C)c3ccc(NC(=O)Nc4cc(F)cc(C(F)(F)F)c4)cc3)n2)ccc1CN1CCN(C)CC1 [Compound 35, 5-((4-((4-(3-(3-fluoro-5-(trifluoromethyl)phenyl)ureido)phenyl)(methyl)amino)pyrimidin-2-yl)amino)-N-methyl-2-((4-methylpiperazin-1-yl)methyl)benzamide] | 0.841 µM | – | 45 nM | – | –
Cc1ccc(Nc2nccc(N(C)c3ccc(NC(=O)Nc4cc(F)cc(C(F)(F)F)c4)cc3)n2)cc1C(=O)OCCO [Compound 36, 2-hydroxyethyl 5-((4-((4-(3-(3-fluoro-5-(trifluoromethyl)phenyl)ureido)phenyl)(methyl)amino)pyrimidin-2-yl)amino)-2-methylbenzoate] | 2.42 µM | – | 23 nM | – | –
Cc1ccc(Nc2nccc(N(C)c3ccc(NC(=O)Nc4ccc(OC(F)(F)F)cc4)cc3)n2)cc1S(N)(=O)=O [Compound 21 from AU 2014903569, reference compound] | – | – | – | – | IC50 [2, 9]: 3600 nM; IC50 [4, 10]: 72.7 nM
CNC(=O)c1cc(Nc2nccc(N(C)c3ccc(NC(=O)Nc4cc(C#N)cc(C(F)(F)F)c4)cc3)n2)ccc1C [Compound 42] | > 10 µM | – | 49 nM | – | –
CN(c1ccc(NC(=O)Nc2ccc(OC(F)(F)F)cc2)cc1)c1nc(Nc2cccc(S(N)(=O)=O)c2)ncc1F [Compound 5, 3-((5-Fluoro-4-(methyl(4-(3-(4-(trifluoromethoxy)phenyl)ureido)phenyl)amino)pyrimidin-2-yl)amino) benzenesulfonamide] | – | 3110 nM | – | 30 nM | –
CN(c1ccc(NC(=O)Nc2cc(F)cc(C(F)(F)F)c2)cc1)c1ccnc(Nc2cccc(S(N)(=O)=O)c2)n1 [Compound 10, 3-((4-((4-(3-(3-fluoro-5-(trifluoromethyl)phenyl)ureido)phenyl)(methyl)amino)pyrimidin-2-yl)amino)benzenesulfonamide] | – | 506 nM | – | < 1 nM | IC50 [2, 9]: 506 nM; IC50 [4, 10]: < 1 nM
Cc1ccc(Nc2nccc(N(C)c3ccc(NC(=O)Nc4ccc(OC(F)(F)F)cc4)cc3)n2)cc1C(N)=O [Compound 4, 2-Methyl-5-((4-(methyl(4-(3-(4-(trifluoromethoxy)phenyl)ureido)phenyl)amino)pyrimidin-2-yl)amino) benzamide] | – | 7410 nM | – | 154 nM | –
Cc1ccc(Nc2nccc(N(C)c3ccc(NC(=O)Nc4ccc(OC(F)(F)F)cc4)cc3)n2)cc1N1CC2(CCOCC2)CC1=O [Compound 41, 1-(4-(methyl(2-((4-methyl-3-(3-oxo-8-oxa-2-azaspiro[4.5]decan-2-yl)phenyl)amino)pyrimidin-4-yl)amino)phenyl)-3-(4-(trifluoromethoxy)phenyl)urea] | > 10 µM | – | 14 nM | – | –
CNC(=O)c1cc(Nc2nccc(N(C)c3ccc(NC(=O)Nc4cccc(OC(F)(F)F)c4)cc3)n2)ccc1C [Compound 39, N,2-dimethyl-5-((4-(methyl(4-(3-(3-(trifluoromethoxy)phenyl)ureido)phenyl)amino)pyrimidin-2-yl)amino)benzamide] | 0.419 µM | – | 3.9 nM | – | –
CNC(=O)c1cc(Nc2ncc(C)c(N(C)c3ccc(NC(=O)Nc4ccc(OC(F)(F)F)cc4)cc3)n2)ccc1C [Compound 6, N,2-dimethyl-5-((5-methyl-4-(methyl(4-(3-(4-(trifluoromethoxy)phenyl)ureido)phenyl)amino)pyrimidin-2-yl)amino)benzamide] | – | – | – | – | IC50 [1, 11]: > 1000 µM; IC50 ([3]; U-937, 48 h): 29 nM
CNC(=O)c1cc(Nc2nccc(N(C)c3ccc(NC(=O)Nc4ccc(Cl)c(C(F)(F)F)c4)cc3)n2)ccc1C [Compound 14, 5-((4-((4-(3-(4-Chloro-3-(trifluoromethyl)phenyl)ureido)phenyl)(methyl)amino)pyrimidin-2-yl)amino)-N,2-dimethylbenzamide] | – | 1630 nM | – | 8.9 nM | –
COCCNC(=O)c1cc(Nc2nccc(N(C)c3ccc(NC(=O)Nc4ccc(OC(F)(F)F)cc4)cc3)n2)ccc1C [Compound 9, N-(2-Methoxyethyl)-2-methyl-5-((4-(methyl(4-(3-(4-(trifluoromethoxy)phenyl)ureido)phenyl)amino)pyrimidin-2-yl)amino)benzamide] | – | > 10000 nM | – | 97.3 nM | –
CN(c1ccc(NC(=O)Nc2ccc(OC(F)(F)F)cc2)cc1)c1ccnc(Nc2cccc(S(N)(=O)=O)c2)n1 [drawing 174, reference compound] | – | – | – | – | IC50 [1, 11]: 1.5 µM; IC50 ([3]; U-937, 48 h): 75 nM
CNC(=O)c1cc(Nc2nccc(N(C)c3ccc(NC(=O)Nc4ccc(OC(F)(F)F)cc4)cc3)n2)ccc1C [Compound 3, N-2-Dimethyl-5-((4-(methyl(4-(3-(4-(trifluoromethoxy)phenyl)ureido)phenyl)amino)pyrimidin-2-yl)amino)benzamide] | – | > 10000 nM | – | 93.1 nM | IC50 [2, 9]: > 10000 nM; IC50 [4, 10]: 93.1 nM
Cc1ccc(Nc2nccc(N(C)c3ccc(NC(=O)Nc4cc(F)cc(C(F)(F)F)c4)cc3)n2)cc1C(=O)N1CCOCC1 [Compound 25, 1-(3-fluoro-5-(trifluoromethyl)phenyl)-3-(4-(methyl(2-((4-methyl-3-(morpholine-4-carbonyl)phenyl)amino)pyrimidin-4-yl)amino)phenyl)urea] | – | 2280 nM | – | 9.2 nM | –
CNC(=O)c1cc(Nc2nccc(N(C)c3ccc(NC(=O)Nc4cc(C(F)(F)F)cc(C(F)(F)F)c4)cc3)n2)ccc1C [Compound 37, 5-((4-((4-(3-(3,5-bis(trifluoromethyl)phenyl)ureido)phenyl)(methyl)amino)pyrimidin-2-yl)amino)-N,2-dimethylbenzamide] | 1.09 µM | – | 71 nM | – | –
